In paper PMC7996082, “The translocator protein ligands as mitochondrial functional modulators for the potential anti-Alzheimer agents” (Journal of Enzyme Inhibition and Medicinal Chemistry, 2021):
Read-outs that look alike come from different tables or passages of the source.

Columns and labels:
[1] = target: T1, CYP2C19 (Homo sapiens, UniProt P33261); assay: CYP inhibition assay (Vivid CYP450 screening kit); type: in vitro ADME; details: 10 μM compound
T1 construct: purchased Invitrogen, Madison, WI, USA
Summary of the method: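 Recombinant human CYP isozymes in baculosomes with rabbit NADPH-P450 reductase and a G6P/G6PDH regeneration system (100 mM potassium phosphate, pH 8.0) were preincubated with compound 5 min at 37 °C. Reactions were started with Vivid fluorogenic substrates and 0.1 mM NADP+, and % remaining activity was read by fluorescence after 20 min.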

[2] = Pharmacokinetic study in SD male rats; type: in vivo, rat; details: 10 mg/kg; for AUC(0-t) / clearance / AUC(0-inf) / Vd / bioavailability / Cmax / Tmax / half-life: Sprague-Dawley, rat, plasma; for bioavailability: oral vs intravenous; for half-life: male
Procedure: Each test compound at a dose of 10 mg/kg was administered intravenously or orally to male Sprague-Dawley (SD) rats. Blood samples collected via carotid artery at several time points after administration of each compound were stored at −70 °C until LC-MS/MS analysis. To determine the plasma concentration of each compound, a 0.1 µg/mL of internal standard in 100 µL of MeCN was added to 50 µL of plasma samples. After vortex-shaking and centrifugation at 10,000 rpm for 10 min, 5 µL of the supernatant was analysed by LC-MS/MS [HP1100® HPLC system (Agilent, Santa Clara, CA) combined with API3200® triple-quadrupole mass spectrometer (Applied Biosystems-SCIEX, Concord, Canada)]. The HPLC chromatographic separation was performed on a reversed-phase Xterra® C18 column (Waters Corporation, Milford, MA) using gradient elution consisted of 0.1% formic acid and 0.1% formic acid in 90% MeCN at a flow rate of 0.3 ml/min.

[3] = target: T2, hERG channel (Homo sapiens, UniProt Q12809); assay: hERG inhibition assay (automated patch-clamp, CHO-K1 Tet-On hERG cells); type: cell-based; details: for hERG inhibition (in words): authors' grading of Table 6; for IC50: patch-clamp, ± SD
T2 construct: host or cells: CHO-K1 Tet-On hERG cells
Procedure: For automated patch-clamp NPC-16 Patchliner (Nanion Technologies, München, Germany) recordings, CHO-K1 Tet-On hERG cells (IonGate Biosciences GmbH, Frankfurt, Germany) were plated into 100-mm cell culture dishes. Whole-cell currents were recorded with the intracellular solution containing: 50 mM KCl, 60 mM KF, 10 mM NaCl, 2 mM MgCl2, 20 mM EGTA and 10 mM HEPES (pH 7.2), and with the extracellular solution containing: 140 mM NaCl, 4 mM KCl, 2 mM CaCl2, 1 mM MgCl2, 5 mM Glucose and 10 HEPES (pH 7.4). To assist stable seal formations, the seal enhancer containing: 80 mM NaCl, 3 mM KCl, 35 mM CaCl2, 10 mM MgCl2 and 10 mM HEPES (pH 7.4) was used only at the seal formation step. Prior to the whole-cell recordings, the external seal enhancing solution was exchanged to the extracellular solution described above. hERG channel currents were recorded using the parallel EPC-10 patch-clamp amplifiers (HEKA Elektronik, Lambrecht/Pfalz, Germany), and low-pass filtered (10 kHz) with a 4-pole Bessel filter. Cell suspension and patch solutions were automatically added onto the four recording wells in the microfabricated disposable chip (NPC-16 Chip, Nanion Technologies, München, Germany). To obtain the inhibitory constants, hERG tail currents were evoked by repolarizing steps to −50 mV for 500 ms preceded by a 500-ms depolarisation potential of +20 mV at a holding potential of −80 mV with a 20-s sweep interval. Whole-cell currents were acquired and digitised at 5 kHz using Patchmaster (HEKA Elektronik, Lambrecht/Pfalz, Germany). The extracellular solution was exchanged to the extracellular solution containing each blocker via four pipette tips of NPC-16 Patchliner using a 4-fold volume of solution (40 µL) with a speed of 4 µL/s, and the exchanged blocker solution was applied for 100–200 s to the patch-clamped cells until blocker binding had reached equilibrium by monitoring hERG tail currents. Whole-cell recordings were analysed using the Patchmaster/Fitmaster (HEKA Elektronik, Lambrecht/Pfalz, Germany), IGOR Pro (WaveMetrics Inc., Portland, OR, USA), and the GraphPad Prism 4.0 (GraphPad Software, Inc., La Jolla, CA, USA) software.

[4] = target: T3, recombinant human TSPO (Homo sapiens, UniProt P30536); assay: Surface plasmon resonance (SPR) binding affinity; details: mean ± SD of three measurements
T3 construct: purchased Origene Technologies, Inc. TP320107
Procedure: To determine the binding affinities of the selected compounds, the KD values were measured by using Biacore T200 optical biosensor system (GE Healthcare). The recombinant human TSPO (18 kDa, Origene Technologies, Inc., No.: TP320107) was covalently immobilised on a CM5 chip (GE Healthcare) at 25 °C via standard amine-coupling protocols in 10 mM sodium acetate (pH 4.5) at a flow rate of 10 µL/min for 1500s (immobilised protein densities: 5,000–6,000 response unit (RU)). The tested compounds were initially prepared at 10 mM in DMSO, and serially diluted in PBS-P buffer (10 mM NaH2PO4, 150 mM NaCl, pH 7.4) to 1% DMSO. For each tested compound, the kinetic values were measured using a five-point concentration series, 0.001, 0.01, 0.5, 1, and 5 µM. Multiple blank samples of running buffer alone (0 µM of tested compounds) were incorporated in every measurement. The filtered PBS-P buffer containing 1% DMSO was used as a running buffer during the SPR experiments. To measure the kinetic values, a series of different concentrations were injected over the immobilised chip at a flow rate of 50 µL/min (contact time: 120 s, dissociation time: 300 s), followed by the regeneration process at a flow rate of 50 µL/min (contact time: 120 s, stabilisation time: 10 s). The KD value of each compound was calculated by Biacore T200 evaluation software (GE Healthcare) after the standard solvent correction process.

[5] = intravenous, n = 3, read-out: Vss
[6] = n = 3, read-out: F (bioavailability)
[7] = iv, intravenous, n = 3, read-out: Terminal half-life
[8] = po, oral, n = 3, read-out: Terminal half-life

T1 sequence (P33261 whole entry): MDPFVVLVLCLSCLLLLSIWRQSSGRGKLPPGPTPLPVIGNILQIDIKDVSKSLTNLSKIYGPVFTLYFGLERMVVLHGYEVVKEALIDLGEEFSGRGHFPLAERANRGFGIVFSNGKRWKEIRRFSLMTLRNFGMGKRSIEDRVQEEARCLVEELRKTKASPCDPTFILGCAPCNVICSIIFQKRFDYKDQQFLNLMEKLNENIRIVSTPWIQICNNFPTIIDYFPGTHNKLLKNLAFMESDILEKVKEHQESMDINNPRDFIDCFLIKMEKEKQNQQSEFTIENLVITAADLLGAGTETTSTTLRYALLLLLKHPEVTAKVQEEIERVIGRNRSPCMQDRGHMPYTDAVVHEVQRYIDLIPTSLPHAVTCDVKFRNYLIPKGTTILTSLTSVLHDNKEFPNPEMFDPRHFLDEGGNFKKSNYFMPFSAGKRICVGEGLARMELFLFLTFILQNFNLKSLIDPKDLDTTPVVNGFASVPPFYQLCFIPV
T3 sequence (P30536 whole entry): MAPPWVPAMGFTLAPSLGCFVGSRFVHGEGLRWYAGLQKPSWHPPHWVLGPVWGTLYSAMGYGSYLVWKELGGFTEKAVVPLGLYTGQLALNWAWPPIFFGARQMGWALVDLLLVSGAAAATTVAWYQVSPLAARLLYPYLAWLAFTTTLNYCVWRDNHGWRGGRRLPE
T2 sequence (Q12809 whole entry): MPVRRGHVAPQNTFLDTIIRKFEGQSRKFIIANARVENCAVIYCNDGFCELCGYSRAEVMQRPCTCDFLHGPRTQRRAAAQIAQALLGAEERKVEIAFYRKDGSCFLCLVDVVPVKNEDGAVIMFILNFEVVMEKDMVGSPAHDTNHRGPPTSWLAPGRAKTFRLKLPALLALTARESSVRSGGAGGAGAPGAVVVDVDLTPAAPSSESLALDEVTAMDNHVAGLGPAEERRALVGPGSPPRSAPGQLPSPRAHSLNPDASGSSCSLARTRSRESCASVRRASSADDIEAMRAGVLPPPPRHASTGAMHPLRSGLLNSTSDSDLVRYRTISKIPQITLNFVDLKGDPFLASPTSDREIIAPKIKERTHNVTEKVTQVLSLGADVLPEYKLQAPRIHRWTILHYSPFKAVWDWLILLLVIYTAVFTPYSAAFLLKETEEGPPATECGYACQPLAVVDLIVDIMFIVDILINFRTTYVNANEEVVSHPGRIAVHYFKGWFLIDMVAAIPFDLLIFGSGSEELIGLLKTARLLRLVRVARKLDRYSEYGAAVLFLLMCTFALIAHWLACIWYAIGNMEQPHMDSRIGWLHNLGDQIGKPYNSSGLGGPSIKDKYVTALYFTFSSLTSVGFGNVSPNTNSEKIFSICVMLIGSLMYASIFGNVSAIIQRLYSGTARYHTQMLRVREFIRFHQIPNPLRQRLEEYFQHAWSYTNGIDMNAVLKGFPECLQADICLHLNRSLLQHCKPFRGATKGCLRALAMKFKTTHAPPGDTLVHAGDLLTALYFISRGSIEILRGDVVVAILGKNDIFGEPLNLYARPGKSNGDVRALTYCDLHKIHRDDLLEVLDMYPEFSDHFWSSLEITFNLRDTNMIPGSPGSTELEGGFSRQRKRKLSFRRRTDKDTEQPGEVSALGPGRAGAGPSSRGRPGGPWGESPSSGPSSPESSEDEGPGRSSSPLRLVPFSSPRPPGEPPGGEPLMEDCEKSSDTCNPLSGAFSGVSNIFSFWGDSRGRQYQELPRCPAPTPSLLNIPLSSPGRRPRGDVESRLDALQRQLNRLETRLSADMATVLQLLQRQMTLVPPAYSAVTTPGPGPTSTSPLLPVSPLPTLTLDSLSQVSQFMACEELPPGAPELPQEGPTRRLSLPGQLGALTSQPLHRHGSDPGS

Compound	CYP450 (% remaining Activity at 10 μM) CYP2C19 [1]	AUC(0-t) ([2]; intravenous, n = 3)	clearance ([2]; intravenous, n = 3)	AUC(0-inf) ([2]; intravenous, n = 3, mean ± SD)	Vd [2, 5]	bioavailability [2, 6]	AUC(0-t) ([2]; oral, n = 3)	Cmax ([2]; oral, n = 3)	AUC(0-inf) ([2]; oral, n = 3, mean ± SD)	Tmax ([2]; oral, n = 3, range in brackets)	half-life [2, 7]	half-life [2, 8]	Kd [4]	hERG inhibition (in words) [3]	IC50 [3]	other results
CCOc1ccc(-n2c(SCC(=O)N3CCN(c4ccccc4)CC3)nc3sc4c(c3c2=O)CCN(C(C)=O)C4)cc1 [Compound 44]	28.3%	17600 ng·h/mL	9.43 ± 1.05 mL/min/kg	17800 ng·h/mL	0.785 ± 0.0396 L/kg	78.4%	8120 ng·h/mL	2110 ± 910 ng/mL	10200 ng·h/mL	1.2 h	1.33 h	3.32 ± 2.24 h	2.74 ± 0.66 µM	low hERG inhibition	8.9 ± 0.22 µM	Terminal half-life ([2]; intravenous, n = 3): 1.336 ± 0.156 h
CCOc1ccc(-n2c(SCC(=O)NCc3ccccc3)nc3sc4c(c3c2=O)CCN(C(C)=O)C4)cc1 [Compound 31]	70.0%	4560 ng·h/mL	32.5 ± 10.1 mL/min/kg	5510 ng·h/mL	7.74 ± 1.11 L/kg	8%	194 ng·h/mL	40 ± 20 ng/mL	443 ng·h/mL	0.8 h	2.9 ± 0.54 h	7.47 ± 0.46 h	1.25 ± 0.4 µM	low hERG inhibition	8.8 ± 2.36 µM	–
CCOc1ccc(-n2c(SCC(=O)NC3CCN(C)CC3)nc3sc4c(c3c2=O)CCN(C(C)=O)C4)cc1 [Compound 30]	107.6%	–	–	–	–	–	–	–	–	–	–	–	–	low hERG inhibition	12.3 ± 1.25 µM	–
CCOc1ccc(-n2c(SCC(=O)Nc3ccc(OC)c(OC)c3)nc3sc4c(c3c2=O)CCN(C(C)=O)C4)cc1 [Compound 7]	–	–	–	–	–	–	–	–	–	–	–	–	0.63 ± 0.33 µM	–	19.5 ± 4.43 µM	AUC(0-inf) ([2]; intravenous, n = 5, Table S3): 6030 ng·h/mL; AUC(0-t) ([2]; intravenous, n = 5, Table S3): 6000 ng·h/mL; clearance ([2]; intravenous, n = 5, Table S3): 28.9 ± 7.09 mL/min/kg; Vd ([2]; intravenous, n = 5, Table S3, read-out: Vss): 1.74 L/kg; bioavailability ([2]; n = 5, Table S3, read-out: F (bioavailability)): 37.3%; AUC(0-inf) ([2]; oral, n = 5, Table S3): 2250 ng·h/mL; AUC(0-t) ([2]; oral, n = 5, Table S3): 1930 ng·h/mL; Tmax ([2]; oral, n = 5, Table S3): 2.2 h; half-life ([2]; iv, intravenous, n = 5, Table S3, read-out: Terminal half-life): 1.04 ± 0.0785 h; half-life ([2]; po, oral, n = 5, Table S3, read-out: Terminal half-life): 2.35 ± 1.04 h

Continued, in another order:

CYP450 (% remaining Activity at 10 μM) CYP2C19 [1]	AUC(0-t) ([2]; intravenous, n = 3)	clearance ([2]; intravenous, n = 3)	AUC(0-inf) ([2]; intravenous, n = 3, mean ± SD)	Vd [2, 5]	bioavailability [2, 6]	AUC(0-t) ([2]; oral, n = 3)	Cmax ([2]; oral, n = 3)	AUC(0-inf) ([2]; oral, n = 3, mean ± SD)	Tmax ([2]; oral, n = 3, range in brackets)	half-life [2, 7]	half-life [2, 8]	Kd [4]	Compound	hERG inhibition (in words) [3]	IC50 [3]	other results
47.9%	–	–	–	–	–	–	–	–	–	–	–	–	CCOc1ccc(-n2c(SCC(=O)N(C)Cc3ccccc3)nc3sc4c(c3c2=O)CCN(C)C4)cc1 [Compound 50]	low hERG inhibition	10.6 ± 0.97 µM	–
90.0%	–	–	–	–	–	–	–	–	–	–	–	–	CCOc1ccc(-n2c(SCC(=O)NCc3ccccc3)nc3sc4c(c3c2=O)CCN(C)C4)cc1 [Compound 49]	low hERG inhibition	15 ± 4.24 µM	–
